{
  "source": "patent US20160198747A1",
  "about": "“1H-PYRROLE-DICARBONYL-DERIVATIVES AND THEIR USE AS FLAVORING AGENTS” (IMAX DISCOVERY GMBH, priority 2013, published 2016)",
  "key": {"[1]": {"conditions": "as described in US 2009/0311401; cited from earlier work"}, "[2]": {"tested_on": "bacterial strains of Salmonella typhimurium", "assay": "in vitro Ames plate incorporation test", "assay_type": "cell-based", "description": "(§1) A particularly preferred compound of the invention is 4-ethyl 2-pyridin-2-ylmethyl-3,5-dimethyl-1H-pyrrole-2,4-dicarboxylate. […] It performs as a MSG replacer at the concentration of 4-20 ppm, depending on the application, whereas at the concentration of 0.5-10 ppm, depending on the application, it performs as a MSG enhancer. The compound is not mutagenic in a standard in vitro Ames plate incorporation test in bacterial strains of Salmonella typhimurium either in the absence or presence of metabolic activation."}, "[3]": {"tested_on": "group of 16 trained panelists", "assay": "Sensory Test 2: trained panelists score a beef broth (bouillon) on eight descriptors", "assay_type": "in vivo, human", "conditions": "scale 0 to 6, average of 16 panelists", "description": "A group of 16 trained panelists was instructed to evaluate the taste of a broth (bouillon) containing 0.5 wt. % of beef extract (Ref-beef) according to eight different descriptors in several repetitions. In a next step, these panelists were asked to rate said reference beef broth “Ref-beef” (presented at each testing session as a reference) against the following two different compositions consisting of “Ref-beef” and additionally a specific amount of the respective to be tested substance:\n“Beef-I”=“Ref-beef”+10 ppm of the compound of Formula (I) of Synthesis Example 1,\n“Beef-MSG”=“Ref-beef”+500 ppm (0.05 wt. %) of MSG\n“Beef-MSG” was used as a positive umami standard.\nThe panelists judged the strength/intensity of the eight different descriptors in each case by awarding scores on a scale of from 0 (not corresponding to descriptor) to 6 (very strong). The results are present in the following table and FIGURE. All data are the averaged values for the group of 16 trained panelists for the respective scores for each descriptor."}, "[4]": {"assay": "stability to heat and to day-light", "assay_type": "physicochemical"}, "[5]": {"tested_on": "human sensory panel", "assay": "human sensory panel (summary statement)", "assay_type": "in vivo", "description": "as §1"}, "[6]": {"assay": "Sensory Test 3: Sip and Spit evaluation in water, bouillons, meat products and snacks", "assay_type": "in vivo, human", "protocol": "An additional sensory analysis was performed for the compound of Formula (I) of Synthesis Example 1, by “Sip and Spit” for all evaluations and the key results are summarized in the following table."}, "[7]": {"tested_on": "expert panel (8 panelists)", "assay": "Sensory Test 1: expert panel, aqueous solution, sipping, holding 10 seconds, spitting out", "assay_type": "in vivo, human", "protocol": "An expert panel (8 panelists) evaluated the sensory properties of the compound of Formula (I) of Synthesis Example 1. The compound of Formula (I) of Synthesis Example 1 was first dissolved in ethanol and then added in the corresponding amount in water. The aqueous solution was evaluated by sipping, holding it in the mouth for 10 seconds, and then spitting it out. The description “accumulating” means that the flavor perception gradually (further) increases a few seconds after taking the solution into the mouth, often even some time after the solution has been spit out."}, "[8]": {"assay": "solubility", "assay_type": "physicochemical"}, "[9]": {"conditions": "Beef-I = Ref-beef (broth, 0.5 wt. % beef extract) + 10 ppm compound"}, "[10]": {"conditions": "Beef-MSG = Ref-beef (broth, 0.5 wt. % beef extract) + 500 ppm (0.05 wt. %) MSG"}},
  "note": "Entries after “also recorded” stand apart in the source; their conditions may differ.",
  "data": [
    {"smiles": "CCNC(=O)O[C@H]1C[C@H](C)CC[C@H]1C(C)C", "note": "(racemic) [racemate of (1S,2S,5R)-2-isopropyl-5-methylcyclohexyl ethyl carbamate, (1S,2S,5R)-2-isopropyl-5-methylcyclohexyl ethyl carbamate]", "values": [
      {"measurement": "flavor profile", "setting": "[1]", "result": "cooling, umami, menthol note"}
    ]},
    {"smiles": "CCOC(=O)c1c(C)[nH]c(C(=O)OCc2ccccn2)c1C", "note": "[Synthesis Example 1, 3,5-dimethyl-1H-pyrrole-2,4-dicarboxylic acid, 4-ethyl 2-(2-pyridinylmethyl)ester]", "values": [
      {"measurement": "mutagenicity, Ames plate incorporation test", "setting": "[2]; absence of metabolic activation", "result": "not mutagenic"},
      {"measurement": "mutagenicity, Ames plate incorporation test", "setting": "[2]; presence of metabolic activation", "result": "not mutagenic"},
      {"measurement": "Long-lastingness score", "setting": "[3]; [9]", "result": 5.4},
      {"measurement": "Meaty score", "setting": "[3]; [9]", "result": 5.5},
      {"measurement": "Mouth-watering score", "setting": "[3]; [9]", "result": 4.9},
      {"measurement": "Mouthfeel score", "setting": "[3]; [9]", "result": 5.5},
      {"measurement": "Roasty score", "setting": "[3]; [9]", "result": 3.9},
      {"measurement": "Salty score", "setting": "[3]; [9]", "result": 2.7},
      {"measurement": "Sour score", "setting": "[3]; [9]", "result": 2.9},
      {"measurement": "Sweet score", "setting": "[3]; [9]", "result": 1.5},
      {"measurement": "stability to day-light", "setting": "[4]; day-light", "result": "stable"},
      {"measurement": "stability to heat", "setting": "[4]; heat", "result": "stable"},
      {"measurement": "after-taste or off notes", "setting": "[5]", "result": "No after-taste or off notes are perceived"},
      {"measurement": "taste perception", "setting": "[5]; 3 ppm", "result": "very pleasant savory taste perception"},
      {"measurement": "MSG ENHANCEMENT Chicken Bouillon + 0.01% MSG vs. 0.04% MSG, sensory description", "setting": "[6]; 0.5 ppm in chicken bouillon + 0.01% MSG", "result": "warm, meaty; also recorded: fatty, slightly salty, round,; also recorded: slight sweet, good impact,"},
      {"measurement": "Performance in Salted Water, sensory description", "setting": "[6]; 3 ppm in salted water", "result": "clean, sweet umami, good"},
      {"measurement": "Performance in Water, sensory description", "setting": "[6]; 3 ppm in water", "result": "clean, sweet umami, good"},
      {"measurement": "MSG REPLACEMENT Chicken Bouillon vs. 0.04% MSG, sensory description", "setting": "[6]; 4 ppm in chicken bouillon", "result": "good, round, nice, clean"},
      {"measurement": "MSG ENHANCEMENT Sour Cream & Onion Chips + 0.05% MSG vs. 0.4% MSG, sensory description", "setting": "[6]; 6 ppm in sour cream & onion chips + 0.05% MSG", "result": "umami, pleasant, good"},
      {"measurement": "MSG ENHANCEMENT Crackers + 0.03% MSG vs. 0.1% MSG, sensory description", "setting": "[6]; 10 ppm in crackers + 0.03% MSG", "result": "umami, salivating, good"},
      {"measurement": "MSG ENHANCEMENT Marinated Chicken + 0.05% MSG vs. 0.3% MSG, sensory description", "setting": "[6]; 10 ppm in marinated chicken + 0.05% MSG", "result": "bad, eggy, white meat,; also recorded: malty"},
      {"measurement": "MSG ENHANCEMENT Pork Burger + 0.03% MSG vs. 0.1% MSG, sensory description", "setting": "[6]; 10 ppm in pork burger + 0.03% MSG", "result": "umami, sweet"},
      {"measurement": "MSG REPLACEMENT Cocido Ham vs. 0.1% MSG, sensory description", "setting": "[6]; 20 ppm in cocido ham", "result": "stronger, ok, meaty, sweet, and good"},
      {"measurement": "MSG REPLACEMENT Marinated Chicken vs. 0.3% MSG, sensory description", "setting": "[6]; 20 ppm in marinated chicken", "result": "meaty, umami balanced,; also recorded: seems salty"},
      {"measurement": "MSG REPLACEMENT Sour Cream & Onion Chips vs. 0.4% MSG, sensory description", "setting": "[6]; 20 ppm in sour cream & onion chips", "result": "umami balanced, pleasant,; also recorded: lingering, less salty, good,; also recorded: full, salivating, sweet, more; also recorded: creamy"},
      {"measurement": "MSG ENHANCEMENT Chicken Bouillon + 0.01% MSG vs. 0.04% MSG, concentration", "setting": "[6]; chicken bouillon + 0.01% MSG, vs. 0.04% MSG", "result": 0.5, "unit": "ppm"},
      {"measurement": "MSG REPLACEMENT Chicken Bouillon vs. 0.04% MSG, concentration", "setting": "[6]; chicken bouillon, vs. 0.04% MSG", "result": 4, "unit": "ppm"},
      {"measurement": "MSG REPLACEMENT Cocido Ham vs. 0.1% MSG, concentration", "setting": "[6]; cocido ham, vs. 0.1% MSG", "result": 20, "unit": "ppm"},
      {"measurement": "MSG ENHANCEMENT Crackers + 0.03% MSG vs. 0.1% MSG, concentration", "setting": "[6]; crackers + 0.03% MSG, vs. 0.1% MSG", "result": 10, "unit": "ppm"},
      {"measurement": "concentration at which it performs as a MSG enhancer", "setting": "[6]; depending on the application", "result": "0.5-10 ppm"},
      {"measurement": "concentration at which it performs as a MSG replacer", "setting": "[6]; depending on the application", "result": "4-20 ppm"},
      {"measurement": "MSG ENHANCEMENT Marinated Chicken + 0.05% MSG vs. 0.3% MSG, concentration", "setting": "[6]; marinated chicken + 0.05% MSG, vs. 0.3% MSG", "result": 10, "unit": "ppm"},
      {"measurement": "MSG REPLACEMENT Marinated Chicken vs. 0.3% MSG, concentration", "setting": "[6]; marinated chicken, vs. 0.3% MSG", "result": 20, "unit": "ppm"},
      {"measurement": "MSG ENHANCEMENT Pork Burger + 0.03% MSG vs. 0.1% MSG, concentration", "setting": "[6]; pork burger + 0.03% MSG, vs. 0.1% MSG", "result": 10, "unit": "ppm"},
      {"measurement": "MSG REPLACEMENT Pork Burger vs. 0.1% MSG, concentration", "setting": "[6]; pork burger, vs. 0.1% MSG", "result": 20, "unit": "ppm"},
      {"measurement": "MSG ENHANCEMENT Sour Cream & Onion Chips + 0.05% MSG vs. 0.4% MSG, concentration", "setting": "[6]; sour cream & onion chips + 0.05% MSG, vs. 0.4% MSG", "result": 6, "unit": "ppm"},
      {"measurement": "MSG REPLACEMENT Sour Cream & Onion Chips vs. 0.4% MSG, concentration", "setting": "[6]; sour cream & onion chips, vs. 0.4% MSG", "result": 20, "unit": "ppm"},
      {"measurement": "Description of sensory effects", "setting": "[7]; 3 ppm + 0.05 wt. % MSG in water", "result": "Strong umami, meaty, mouthfeel,; also recorded: mouth-watering"},
      {"measurement": "Description of sensory effects", "setting": "[7]; 3 ppm in water", "result": "Strong umami, slightly metallic,; also recorded: some delay but lingering"},
      {"measurement": "Description of sensory effects", "setting": "[7]; 30 ppm + 0.05 wt. % MSG in water", "result": "Umami, meaty, accumulating"},
      {"measurement": "Description of sensory effects", "setting": "[7]; 30 ppm in water", "result": "Strong umami, long lasting"},
      {"measurement": "solubility", "setting": "[8]", "result": "good solubility"}
    ]},
    {"smiles": "N[C@@H](CCC(=O)O)C(=O)[O-].[Na+]", "note": "[MSG, monosodium glutamate, reference compound]", "values": [
      {"measurement": "Long-lastingness score", "setting": "[3]; [10]", "result": 4.3},
      {"measurement": "Meaty score", "setting": "[3]; [10]", "result": 5.3},
      {"measurement": "Mouth-watering score", "setting": "[3]; [10]", "result": 4.4},
      {"measurement": "Mouthfeel score", "setting": "[3]; [10]", "result": 4.8},
      {"measurement": "Roasty score", "setting": "[3]; [10]", "result": 3.8},
      {"measurement": "Salty score", "setting": "[3]; [10]", "result": 2.5},
      {"measurement": "Sour score", "setting": "[3]; [10]", "result": 2.9},
      {"measurement": "Sweet score", "setting": "[3]; [10]", "result": 2.1}
    ]}
  ]
}
